The results in this text go back to US4439448A, “Glutamine derivatives” (Mitsubishi Chemical Industries Ltd., priority 1980, dated 1984).

Counter-ions that a name gives are not always drawn.

One data set deals with delayed hypersensitibity. Description: TEST 3 effects on delayed hypersensitivity (sheep red blood cell paw edema). Type of data set: in vivo, mice, ddY strain. The note with it: four consecutive days. How it is done:
Into the palms of the right rear limbs of mice (ddY strain, weighing 25-30 g) was injected 40 μl of sheep red blood cells the concentration of which was adjusted to 1×10^7 /40 μl. The test drug was administered intraperitoneally or orally for four consecutive days inclusive of the day of sheep red blood cell administration. Three days after the day of sheep red blood cell administration, 40 μl of sheep red blood cells which were adjusted to have a concentration of 5×10^8 /40 μl were administered into the palms of the left rear limbs. After 24 hours, the thickness of the palms of the right and left rear limbs was measured. The edema was expressed as the difference in thickness between the palms of the left and right rear limbs. The results are shown in FIG. 3, in which the edema in the medicated group is expressed as percent control which means the percentage of the edema found in the group in which physiological saline is applied (control group).

For a further data set, the system named is ddY mice. As to the kind of experiment: TEST 1 acute toxicity in mice. Type of data set: in vivo. Particulars: mouse, in vivo. The source says:
The test drug was suspended in aqueous 50% solution of Tween 80 and administered to ddY mice weighing 20-25 g orally or intraperitoneally in doses indicated in Table 1 below.

With `CCOC(=O)Cc1ccc(NC(=O)CC[C@@H](N)C(=O)O)cc1` [Compound (12), N-(4-Ethoxycarbonylmethylphenyl)-D-glutamine], the “% Control (edema, percentage of that in physiological saline control group)” value in the data set on delayed hypersensitibity (3 mg/kg I.P.) was found to be 76.1%; in the data set with delayed hypersensitibity (10 mg/kg I.P.) it was 107.9%; with delayed hypersensitibity (30 mg/kg I.P.) it was 89.1%; in the data set with delayed hypersensitibity (30 mg/kg P.O.), 85.4%; in the data set on delayed hypersensitibity (100 mg/kg P.O.) it was 81.7%; in the data set with delayed hypersensitibity (300 mg/kg P.O.) it was 80.7%.
Take `CCOC(=O)C(CC)c1ccc(NC(=O)CC[C@H](N)C(=O)O)cc1` (stereo partly drawn) [Compound (13), N-[4-(1-Ethoxycarbonyl-n-propyl)phenyl]-L-glutamine]: the “No. of dead mice/No. of test animals” value in the data set with ddY mice was 0/5. The “% Control (edema, percentage of that in physiological saline control group)” value was determined as 82.1% in the data set on delayed hypersensitibity (3 mg/kg I.P.); 70.5% in the data set on delayed hypersensitibity (10 mg/kg I.P.); 64.2% in the data set on delayed hypersensitibity (30 mg/kg I.P.); 89.6% in the data set with delayed hypersensitibity (30 mg/kg P.O.); 87.4% in the data set on delayed hypersensitibity (100 mg/kg P.O.); 75.7% in the data set with delayed hypersensitibity (300 mg/kg P.O.).
`CCOC(=O)C(C)(C)c1ccc(NC(=O)CC[C@H](N)C(=O)O)cc1` [Compound (14), N-[4-(1-Ethoxycarbonyl-1-methylethyl)phenyl]-L-glutamine]: the figures for the “% Control (edema, percentage of that in physiological saline control group)” value in the data set on delayed hypersensitibity (3 mg/kg I.P.), with delayed hypersensitibity (10 mg/kg I.P.) and with delayed hypersensitibity (30 mg/kg I.P.) were 77.3%, 72.6% and 71.9%, respectively.
In the case of `CCOC(=O)C(C)c1ccc(NC(=O)CC[C@H](N)C(=O)O)cc1` (stereo partly drawn) [Compound (15), N-[4-(1-Ethoxycarbonylethyl)phenyl]-L-glutamine], the “% Control (edema, percentage of that in physiological saline control group)” value was determined as 78.0% in the data set on delayed hypersensitibity (3 mg/kg I.P.), 62.6% in the data set on delayed hypersensitibity (10 mg/kg I.P.) and 67.6% with delayed hypersensitibity (30 mg/kg I.P.).
On to `CCOC(=O)Cc1ccc(NC(=O)CC[C@H](N)C(=O)O)cc1` [Hydrochloride Compound (2)], for which the “% Control (edema, percentage of that in physiological saline control group)” value in the data set on delayed hypersensitibity (3 mg/kg I.P.) worked out at 79.6%; in the data set with delayed hypersensitibity (10 mg/kg I.P.), 90.7%; in the data set with delayed hypersensitibity (30 mg/kg I.P.) it was 90.0%; in the data set with delayed hypersensitibity (30 mg/kg P.O.) it was 81.8%; in the data set with delayed hypersensitibity (100 mg/kg P.O.), 75.7%; with delayed hypersensitibity (300 mg/kg P.O.), 67.2%.
Regarding “N-(2-Ethoxycarbonylmethylphenyl)-L-glutamine [Compound (7)]”, the “% Control (edema, percentage of that in physiological saline control group)” value in the data set on delayed hypersensitibity (3 mg/kg I.P.) worked out at 92.4%; with delayed hypersensitibity (10 mg/kg I.P.), 91.1%; in the data set on delayed hypersensitibity (30 mg/kg I.P.), 86.8%; in the data set with delayed hypersensitibity (30 mg/kg P.O.), 92.8%; in the data set on delayed hypersensitibity (100 mg/kg P.O.) it was 84.8%; in the data set on delayed hypersensitibity (300 mg/kg P.O.) it was 82.3%.
Turning to “N-(3-Ethoxycarbonylmethylphenyl)-L-glutamine [Compound (6)]”, the “% Control (edema, percentage of that in physiological saline control group)” value with delayed hypersensitibity (3 mg/kg I.P.) was 94.6%; in the data set with delayed hypersensitibity (10 mg/kg I.P.) it was 83.2%; in the data set on delayed hypersensitibity (30 mg/kg I.P.) it was 84.3%; in the data set on delayed hypersensitibity (30 mg/kg P.O.), 81.1%; in the data set with delayed hypersensitibity (100 mg/kg P.O.) it was 82.8%; with delayed hypersensitibity (300 mg/kg P.O.), 83.1%.
As for “N-(4-ethoxycarbonylmethylphenyl)-L-glutamine hydrochloride [Compound (11)]”, the “% Control (edema, percentage of that in physiological saline control group)” value is given as 77.7% in the data set on delayed hypersensitibity (3 mg/kg I.P.); 67.3% in the data set on delayed hypersensitibity (10 mg/kg I.P.); 84.1% in the data set on delayed hypersensitibity (30 mg/kg I.P.); 89.8% with delayed hypersensitibity (30 mg/kg P.O.); 80.8% in the data set with delayed hypersensitibity (100 mg/kg P.O.); 83.7% with delayed hypersensitibity (300 mg/kg P.O.).
As for “N-(4-n-Butyloxycarbonylmethylphenyl)-L-glutamine [Compound (5)]”, the “% Control (edema, percentage of that in physiological saline control group)” value stood at 91.6% in the data set with delayed hypersensitibity (3 mg/kg I.P.); 95.7% in the data set on delayed hypersensitibity (10 mg/kg I.P.); 72.2% in the data set with delayed hypersensitibity (30 mg/kg I.P.); 94.5% in the data set on delayed hypersensitibity (30 mg/kg P.O.); 84.7% with delayed hypersensitibity (100 mg/kg P.O.); 82.2% in the data set with delayed hypersensitibity (300 mg/kg P.O.).
For “N-(4-n-Propyloxycarbonylmethylphenyl)-L-glutamine [Compound (4)]”, the “% Control (edema, percentage of that in physiological saline control group)” value with delayed hypersensitibity (3 mg/kg I.P.) was found to be 70.4%; with delayed hypersensitibity (10 mg/kg I.P.), 80.2%; in the data set on delayed hypersensitibity (30 mg/kg I.P.), 91.7%; with delayed hypersensitibity (30 mg/kg P.O.), 91.7%; in the data set on delayed hypersensitibity (100 mg/kg P.O.), 91.9%; with delayed hypersensitibity (300 mg/kg P.O.), 79.6%.
For the compound “N-[4-(2-Ethoxycarbonylethyl)phenyl]-L-glutamine [Compound (8)]”, the “% Control (edema, percentage of that in physiological saline control group)” value in the data set with delayed hypersensitibity (3 mg/kg I.P.) is 76.2%; in the data set on delayed hypersensitibity (10 mg/kg I.P.), 76.7%; with delayed hypersensitibity (30 mg/kg I.P.) it was 81.0%; in the data set with delayed hypersensitibity (30 mg/kg P.O.), 85.0%; with delayed hypersensitibity (100 mg/kg P.O.), 80.6%; with delayed hypersensitibity (300 mg/kg P.O.) it was 92.3%.
As to “N-[4-(2-Ethoxycarbonylvinyl)phenyl]-L-glutamine [Compound (10)]”, the “% Control (edema, percentage of that in physiological saline control group)” value with delayed hypersensitibity (3 mg/kg I.P.) came out at 100%; with delayed hypersensitibity (10 mg/kg I.P.) it was 101%; in the data set with delayed hypersensitibity (30 mg/kg I.P.), 85.8%; in the data set on delayed hypersensitibity (30 mg/kg P.O.) it was 81.3%; with delayed hypersensitibity (100 mg/kg P.O.) it was 109.9%; in the data set with delayed hypersensitibity (300 mg/kg P.O.), 82.6%.
For “N-[4-(3-Ethoxycarbonyl-n-propyl)phenyl]-L-glutamine [Compound (9)]”, the “% Control (edema, percentage of that in physiological saline control group)” value in the data set on delayed hypersensitibity (3 mg/kg I.P.) came to 91.3%; in the data set on delayed hypersensitibity (10 mg/kg I.P.) it was 80.2%; in the data set on delayed hypersensitibity (30 mg/kg I.P.), 100.6%; in the data set on delayed hypersensitibity (30 mg/kg P.O.), 85.3%; in the data set on delayed hypersensitibity (100 mg/kg P.O.), 96.7%; in the data set on delayed hypersensitibity (300 mg/kg P.O.) it was 88.9%.
